The values that follow come from US20200347043A1, “MODULATORS OF THE INTEGRATED STRESS PATHWAY” (Calico Life Sciences LLC, priority 2019, published 2020).

The test deals with HEK293T cells carrying the ATF4 luciferase reporter. Description: ATF4-Luc assay (in vitro model of VWMD). In kind it is cell-based, human. Particulars: Homo sapiens, HEK-293T, 1 μg/mL tunicamycin, 7 hours, One Glo luminescence. The method, boiled down:
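Tunicamycin (1 μg/mL) stress with co-added compound for 7 hours in HEK293T cells stably carrying an ATF4 5′-UTR–luciferase reporter. EC50 values come from the luminescent signal (One Glo).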

pEC50: −log10 of the molar value. Where only a bound is given, the exact number is not on record here.

As for `O=C(NC12CC(c3cc(-c4ccc(C(F)(F)F)nc4)no3)(C1)C2)[C@@H]1C[C@@H](O)c2cc(Cl)ccc2O1` [Compound 251, (2S,4R)-6-chloro-4-hydroxy-N-(3-{3-[6-(trifluoromethyl)pyridin-3-yl]-1,2-oxazol-5-yl}bicyclo[1.1.1]pentan-1-yl)-3,4-dihydro-2H-1-benzopyran-2-carboxamide], the pEC50 (in general, the EC50 on a negative log10 scale, so that one unit is a factor of ten) is less than 5.70. The value for `O=C(CO[C@H]1C[C@@H](OC(F)(F)F)C1)NC12CCC(C(=O)NCc3ccc(C(F)(F)F)cn3)(CC1)CC2` [Compound 157] was less than 5.70. For `O=C(NC12CC(n3ncc4cc(Cl)ccc43)(C1)C2)[C@H]1C[C@@H](O)c2cc(Cl)ccc2O1` [Compound 235, (2R,4R)-6-chloro-N-[3-(5-chloro-1H-indazol-1-yl)bicyclo[1.1.1]pentan-1-yl]-4-hydroxy-3,4-dihydro-2H-1-benzopyran-2-carboxamide], the negative logarithm of the EC50 (pEC50) was 6.60 to 7.30.

`O=C(NC12CC(n3cnc([C@H]4C[C@@H](OC(F)(F)F)C4)c3)(C1)C2)[C@H]1C[C@@H](O)c2cc(Cl)ccc2O1` [Compound 287, (2R,4R)-6-chloro-4-hydroxy-N-(3-{4-[cis-3-(trifluoromethoxy)cyclobutyl]-1H-imidazol-1-yl}bicyclo[1.1.1]pentan-1-yl)-3,4-dihydro-2H-1-benzopyran-2-carboxamide]: the pEC50 is more than 8.00. Consider `O=C(NC12CC(c3cc(-c4ccc(Cl)cc4)no3)(C1)C2)[C@H]1C[C@@H](O)c2cc(Cl)ccc2O1` [Compound 246, (2R,4R)-6-chloro-N-{3-[3-(4-chlorophenyl)-1,2-oxazol-5-yl]bicyclo[11.11]pentan-1-yl}-4-hydroxy-3,4-dihydro-2H-1-benzopyran-2-carboxamide], for which the pEC50 was 7.30 to 8.00. Take `O=C1CC(C(=O)NC23CC(C(=O)NCc4ccc(C(F)(F)F)cn4)(C2)C3)Oc2ccc(Cl)cc21` (centres unmarked) [Compound 134, 6-chloro-4-oxo-N-[3-({[5-(trifluoromethyl)pyridin-2-yl]methyl}carbamoyl)bicyclo[1.1.1]pentan-1-yl]-3,4-dihydro-2H-1-benzopyran-2-carboxamide]: the pEC50 is 6.30 to 6.60. For `O=C(NC12CCC(C(=O)N[C@H]3C[C@@H](OC(F)(F)F)C3)(CC1)CC2)[C@H]1C[C@@H](O)c2cc(Cl)ccc2O1` [Compound 222, (2R,4R)-6-chloro-4-hydroxy-N-(4-{[cis-3-(trifluoromethoxy)cyclobutyl]carbamoyl}bicyclo[2.2.2]octan-1-yl)-3,4-dihydro-2H-1-benzopyran-2-carboxamide], the pEC50 was 7.30 to 8.00. `O=C(CO[C@H]1C[C@@H](OC(F)(F)F)C1)NC12CCC(NC(=O)[C@H]3C[C@@H](O)c4cc(Cl)ccc4O3)(CC1)[C@@H](O)C2` [Compound 220, (2R,4R)-6-chloro-4-hydroxy-N-[(2S)-2-hydroxy-4-(2-{[cis-3-(trifluoromethoxy)cyclobutyl]oxy}acetamido)bicyclo[2.2.2]octan-1-yl]-3,4-dihydro-2H-1-benzopyran-2-carboxamide]: the pEC50 was more than 8.00. As to `O=C(NC12CC(n3cnc(-c4ccc(C(F)(F)F)nc4)c3)(C1)C2)[C@@H]1C[C@H](O)c2cc(Cl)ccc2O1` (single isomer, unassigned) [Compound 200], the pEC50 was 6.60 to 7.30. The value for `O=C1CC(C(=O)N[C@@H]2CC[C@@H](C(=O)NCc3ccc(C(F)(F)F)cc3)OC2)Oc2ccc(Cl)cc21` (stereo partly drawn) [Compound 137, 6-chloro-4-oxo-N-[(3R,6S)-6-({[4-(trifluoromethyl)phenyl]methyl}carbamoyl)oxan-3-yl]-3,4-dihydro-2H-1-benzopyran-2-carboxamide] was 6.60 to 7.30. In the case of `O=C(N[C@@H]1C[C@@H]2O[C@H]1C[C@H]2c1nnc([C@H]2C[C@@H](OC(F)(F)F)C2)o1)[C@H]1C[C@@H](O)c2cc(Cl)ccc2O1` (mixture of isomers) [Compound 187], the pEC50 was 6.60 to 7.30. With `O=C(NC12CCC(C(=O)NCc3ccc(C(F)(F)F)cn3)(CC1)CC2)[C@H]1C[C@@H](O)c2cc(Cl)ccc2O1` [Compound 107, (2R,4R)-6-chloro-4-hydroxy-N-[4-({[5-(trifluoromethyl)pyridin-2-yl]methyl}carbamoyl)bicyclo[2.2.2]octan-1-yl]-3,4-dihydro-2H-1-benzopyran-2-carboxamide], the pEC50 is more than 8.00. As for `O=C(NC12CC(N3CC([C@H]4C[C@@H](OC(F)(F)F)C4)OC3=O)(C1)C2)[C@H]1C[C@@H](O)c2cc(Cl)ccc2O1` (stereo partly drawn) [Compound 267, (2R,4R)-6-chloro-4-hydroxy-N-(3-{2-oxo-5-[cis-3-(trifluoromethoxy)cyclobutyl]-1,3-oxazolidin-3-yl}bicyclo[1.1.1]pentan-1-yl)-3,4-dihydro-2H-1-benzopyran-2-carboxamide], the pEC50 is 6.60 to 7.30. As to `O=C(NC12CC(c3cc(-c4ccc(Cl)c(F)c4)no3)(C1)C2)[C@H]1C[C@@H](O)c2cc(Cl)ccc2O1` [Compound 248, (2R,4R)-6-chloro-N-{3-[3-(4-chloro-3-fluorophenyl)-1,2-oxazol-5-yl]bicyclo[1.1.1]pentan-1-yl}-4-hydroxy-3,4-dihydro-2H-1-benzopyran-2-carboxamide], the pEC50 is 7.30 to 8.00. Consider `Cc1cc(C)cc(OCC2CN(C34CC(NC(=O)[C@H]5C[C@@H](O)c6cc(Cl)ccc6O5)(C3)C4)C(=O)O2)c1` (stereo partly drawn) [Compound 142, (2R,4R)-6-chloro-N-(3-{5-[(3,5-dimethylphenoxy)methyl]-2-oxo-1,3-oxazolidin-3-yl}bicyclo[1.1.1]pentan-1-yl)-4-hydroxy-3,4-dihydro-2H-1-benzopyran-2-carboxamide], for which the pEC50 was less than 5.70. With `O=C(COc1ccc(Cl)c(F)c1)NC12CC(c3nnc([C@H]4C[C@@H](O)c5cc(Cl)ccc5O4)o3)(C1)C2` (racemic) [Compound 166, 2-(4-chloro-3-fluorophenoxy)-N-(3-{5-[rac-(2R,4R)-6-chloro-4-hydroxy-3,4-dihydro-2H-1-benzopyran-2-yl]-1,3,4-oxadiazol-2-yl}bicyclo[1.1.1]pentan-1-yl)acetamide] the figure was more than 8.00; with `O=C(CO[C@H]1C[C@@H](OC(F)(F)F)C1)NC12CC(NC(=O)[C@H]3C[C@@H](O)c4cc(Cl)ccc4O3)(C1)C2` (racemic) [Compound 114, rac-(2R,4R)-6-chloro-4-hydroxy-N-[3-(2-{[(1s,3s)-3-(trifluoromethoxy)cyclobutyl]oxy}acetamido)bicyclo[1.1.1]pentan-1-yl]-3,4-dihydro-2H-1-benzopyran-2-carboxamide], more than 8.00. In the case of `O=C(COc1ccc(Cl)c(F)c1)NC12CC(C(=O)NC[C@H]3C[C@@H](O)c4cc(Cl)ccc4O3)(C1)C2` (racemic) [Compound 104, 3-[2-(4-chloro-3-fluorophenoxy)acetamido]-N-{[rac-(2R,4R)-6-chloro-4-hydroxy-3,4-dihydro-2H-1-benzopyran-2-yl]methyl}bicyclo[1.1.1]pentane-1-carboxamide], the pEC50 is 7.30 to 8.00. In the case of `O=C(NC12CC(c3csc([C@H]4C[C@@H](OC(F)(F)F)C4)n3)(C1)C2)[C@H]1C[C@@H](O)c2cc(Cl)ccc2O1` [Compound 280, (2R,4R)-6-chloro-4-hydroxy-N-(3-{2-[cis-3-(trifluoromethoxy)cyclobutyl]-1,3-thiazol-4-yl}bicyclo[1.1.1]pentan-1-yl)-3,4-dihydro-2H-1-benzopyran-2-carboxamide], the pEC50 was 6.60 to 7.30. The value for `O=C(NC12CC(c3cnn(-c4ccc(Cl)c(F)c4)c3)(C1)C2)[C@H]1C[C@@H](O)c2cc(Cl)ccc2O1` [Compound 237, (2R,4R)-6-chloro-N-{3-[1-(4-chloro-3-fluorophenyl)-1H-pyrazol-4-yl]bicyclo[1.1.1]pentan-1-yl}-4-hydroxy-3,4-dihydro-2H-1-benzopyran-2-carboxamide] was more than 8.00.

In the case of `O=C(NC12CC(C3=NOC([C@H]4C[C@@H](OC(F)(F)F)C4)C3)(C1)C2)[C@H]1C[C@@H](O)c2cc(Cl)ccc2O1` (stereo partly drawn) [Compound 232, (2R,4R)-6-chloro-4-hydroxy-N-{3-(5-[cis-3-(trifluoromethoxy)cyclobutyl]-4,5-dihydro-1,2-oxazol-3-yl}bicyclo[1.1.1]pentan-1-yl)-3,4-dihydro-2H-1-benzopyran-2-carboxamide], the pEC50 is 6.60 to 7.30. With `O=C(NC12CCC(c3ncc([C@H]4C[C@@H](OC(F)(F)F)C4)o3)(CC1)CC2)[C@H]1C[C@@H](O)c2cc(Cl)ccc2O1` [Compound 297, (2R,4R)-6-chloro-4-hydroxy-N-(4-{5-[cis-3-(trifluoromethoxy)cyclobutyl]-1,3-oxazol-2-yl}bicyclo[2.2.2]octan-1-yl)-3,4-dihydro-2H-1-benzopyran-2-carboxamide] the figure was 7.30 to 8.00.

For the compound `O=C(NC12CC(c3cnn(-c4ccc(Cl)c(F)c4)c3)(C1)C2)[C@@H]1C[C@@H](O)c2cc(Cl)ccc2O1` [Compound 238, (2S,4R)-6-chloro-N-{3-[1-(4-chloro-3-fluorophenyl)-1H-pyrazol-4-yl]bicyclo[1.1.1]pentan-1-yl}-4-hydroxy-3,4-dihydro-2H-1-benzopyran-2-carboxamide], the negative-log EC50 (pEC50) is 7.30 to 8.00. On to `O=C(N[C@H]1CC[C@H](N2CCN(c3ccc(C(F)(F)F)nc3)C2=O)CC1)[C@H]1C[C@@H](O)c2cc(Cl)ccc2O1` [Compound 310], for which the pEC50 was 6.60 to 7.30. The value for `O=C(CO[C@H]1C[C@@H](OC(F)(F)F)C1)NC12CCC(NC(=O)[C@H]3CC(=O)c4cc(Cl)ccc4O3)(CC1)CC2` [Compound 192, (2R)-6-chloro-4-oxo-N-[4-(2-{[cis-3-(trifluoromethoxy)cyclobutyl]oxy}acetamido)bicyclo[2.2.2]octan-1-yl]-3,4-dihydro-2H-1-benzopyran-2-carboxamide] was 7.30 to 8.00; that for `O=C(NCc1cn2ccc(Cl)cc2n1)[C@@H]1CC[C@@H](NC(=O)[C@@H]2C[C@H](O)c3cc(Cl)ccc3O2)CO1` (racemic) [Compound 131, (2S,4S)-6-chloro-N-[(3R,6S)-6-{[(7-chloroimidazo[1,2-a]pyridin-2-yl)methyl]carbamoyl}oxan-3-yl]-4-hydroxy-3,4-dihydro-2H-1-benzopyran-2-carboxamide and (2R,4R)-6-chloro-N-[(3R,6S)-6-{[(7-chloroimidazo[1,2-a]pyridin-2-yl)methyl]carbamoyl}oxan-3-yl]-4-hydroxy-3,4-dihydro-2H-1-benzopyran-2-carboxamide] was 6.60 to 7.30.
